Measured values from ChEMBL document CHEMBL1201862, “PubChem BioAssay data set” (2004).
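Results reflect a 48-hour exposure of cells in 96-well plates to compound at five concentrations. GI50 marks 50% less growth.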 Calls of active or inactive are those of the source. Rule as the data show it: active = GI50 up to about 1.1 µM and inactive = higher.

Assays:
Assay in all cases: NCI anticancer screen, dose series, 48 h
DMS-114 = test system: DMS-114
DMS-273 = test system: DMS-273
HOP-18 = test system: HOP-18
KM-20L2 = test system: KM-20L2
LXFL 529 = test system: LXFL 529
M19-MEL = test system: M19-MEL
RXF 631 = test system: RXF 631
SNB-78 = test system: SNB-78
XF498 = test system: XF498

For `O=C(O)C1CCc2nnc(-c3ccccc3)n21` (centres undefined), the GI50 (DMS-114) was > 100 µM (inactive), the GI50 (DMS-273) was > 100 µM (inactive) and the GI50 (HOP-18) was > 100 µM (inactive). The GI50 (KM-20L2) was > 100 µM (inactive), the GI50 (LXFL 529) was > 100 µM (inactive) and the GI50 (M19-MEL) was > 100 µM (inactive). For the same molecule, the GI50 (RXF 631) was > 100 µM (inactive) and the GI50 (SNB-78) was > 100 µM (inactive).
With `CC1=NN(C(=O)Cc2ccccc2)C(=O)/C1=C/c1c(O)ccc2ccccc12` the GI50 (DMS-114) was 45.9 µM (inactive), the GI50 (DMS-273) was 50.5 µM (inactive) and the GI50 (HOP-18) was 30.3 µM (inactive). The GI50 (M19-MEL) was 33 µM (inactive) and the GI50 (XF498) was 1.68 µM (inactive).
With `C=C(/C=C/C=C(\CO)CCC=C(C)C)[C@H]1CCC2([C@H](CCCO)/C(=C(/C)C=O)CC[C@]2(C)O)[C@H]1O` (some centres undefined) the GI50 (DMS-114) was > 100 µM (inactive), the GI50 (DMS-273) was > 100 µM (inactive) and the GI50 (HOP-18) was 40.9 µM (inactive). For the same molecule, the GI50 (KM-20L2) was > 100 µM (inactive), the GI50 (LXFL 529) was > 100 µM (inactive) and the GI50 (M19-MEL) was > 100 µM (inactive). The GI50 (SNB-78) was > 100 µM (inactive) and the GI50 (XF498) was > 100 µM (inactive).
With `BrC1=CC=C2NCCCCCC/N=C3\C=CC(Br)=CC=C3NCCCCCC/N=C\2C=C1` the GI50 (DMS-114) was > 25.5 µM (inactive), the GI50 (DMS-273) was > 25.5 µM (inactive) and the GI50 (KM-20L2) was > 25.5 µM (inactive). The GI50 (M19-MEL) was > 25.5 µM (inactive), the GI50 (RXF 631) was > 25.5 µM (inactive) and the GI50 (SNB-78) was > 25.5 µM (inactive).
In the case of `C[C@]12CCc3nonc3C1CC[C@@H]1C2CC[C@]2(C)C(=O)/C(=N\O)CC12` (some centres undefined), the GI50 (DMS-114) is reported as > 100 µM (inactive), the GI50 (DMS-273) is reported as > 100 µM (inactive) and the GI50 (HOP-18) is reported as > 100 µM (inactive). The GI50 (KM-20L2) was > 100 µM (inactive), the GI50 (LXFL 529) was 77.4 µM (inactive) and the GI50 (M19-MEL) was > 100 µM (inactive). For the same molecule, the GI50 (RXF 631) was > 100 µM (inactive), the GI50 (SNB-78) was > 100 µM (inactive) and the GI50 (XF498) was > 100 µM (inactive).
For `Cc1cccc(NC(=O)/C(=N\NC(C)(C)C)C2NC(=S)NC2=O)c1C` (centres undefined), the GI50 (KM-20L2) was > 100 µM (inactive), the GI50 (LXFL 529) was > 100 µM (inactive) and the GI50 (M19-MEL) was > 100 µM (inactive). For the same molecule, the GI50 (RXF 631) was > 100 µM (inactive) and the GI50 (SNB-78) was > 100 µM (inactive).
`CCc1cccc(CC)c1NC(=O)C1=C(C)NC(C)=C(C(=O)Nc2c(CC)cccc2CC)C1c1ccc([N+](=O)[O-])cc1` was tested, and the GI50 (DMS-114) was 15.4 µM (inactive), the GI50 (KM-20L2) was 26.7 µM (inactive) and the GI50 (LXFL 529) was 16.8 µM (inactive). For the same molecule, the GI50 (M19-MEL) was 21.3 µM (inactive) and the GI50 (XF498) was 18.4 µM (inactive).
For `C[C@]12CCC(=O)C=C1CC[C@@H]1C2CC[C@]2(C)c3nn(-c4ccccc4)nc3CC12` (some centres undefined), the GI50 (DMS-114) was > 100 µM (inactive), the GI50 (DMS-273) was > 100 µM (inactive) and the GI50 (KM-20L2) was > 100 µM (inactive). The GI50 (LXFL 529) was > 100 µM (inactive), the GI50 (M19-MEL) was > 100 µM (inactive) and the GI50 (SNB-78) was > 100 µM (inactive). For the same molecule, the GI50 (XF498) was > 100 µM (inactive).
With `N#CC1=C(Cl)NC(Cl)=C(C#N)C1c1c(Cl)cccc1Cl` the GI50 (DMS-114) was 14.2 µM (inactive), the GI50 (DMS-273) was 19.6 µM (inactive) and the GI50 (HOP-18) was 30.1 µM (inactive). The GI50 (KM-20L2) was 45.8 µM (inactive), the GI50 (LXFL 529) was 30.8 µM (inactive) and the GI50 (SNB-78) was 92.7 µM (inactive). For the same molecule, the GI50 (XF498) was 13.9 µM (inactive).
With `CCCCOC(=O)C1C2CCC(O2)C1C(=O)OCCCC` (centres undefined) the GI50 (DMS-114) was > 39.4 µM (inactive), the GI50 (DMS-273) was > 100 µM (inactive) and the GI50 (HOP-18) was > 100 µM (inactive). The GI50 (KM-20L2) was > 42.3 µM (inactive), the GI50 (M19-MEL) was > 61.2 µM (inactive) and the GI50 (SNB-78) was > 100 µM (inactive). The GI50 (XF498) was > 100 µM (inactive).
`N/C=N/S(=O)(=O)c1ccc(NC(=O)COC(=O)c2cccc3c(=O)c4ccccc4[nH]c23)cc1` was tested, and the GI50 (DMS-114) was > 100 µM (inactive), the GI50 (DMS-273) was > 100 µM (inactive) and the GI50 (HOP-18) was > 100 µM (inactive). For the same molecule, the GI50 (M19-MEL) was > 100 µM (inactive) and the GI50 (XF498) was > 100 µM (inactive).
`Cc1cc2c(c3oc(C(O)(CO)C4CO4)cc(=O)c13)C(=O)c1c(O)cccc1C2=O` (centres undefined) was tested, and the GI50 (DMS-114) was < 0.01 µM (active), the GI50 (DMS-273) was < 0.01 µM (active) and the GI50 (HOP-18) was < 0.01 µM (active). The GI50 (KM-20L2) was < 0.01 µM (active), the GI50 (LXFL 529) was < 0.01 µM (active) and the GI50 (M19-MEL) was < 0.01 µM (active). The GI50 (RXF 631) was < 0.01 µM (active), the GI50 (SNB-78) was 0.031 µM (active) and the GI50 (XF498) was < 0.01 µM (active).
For `CC1=C(O)C(=O)C2C(=O)C1C(C)C2c1ccccc1` (centres undefined), the GI50 (DMS-273) was > 100 µM (inactive), the GI50 (LXFL 529) was > 100 µM (inactive) and the GI50 (M19-MEL) was > 100 µM (inactive). The GI50 (SNB-78) was > 100 µM (inactive) and the GI50 (XF498) was > 100 µM (inactive).
`Cc1cc(NC(=O)NC(=O)c2ccccc2[N+](=O)[O-])ccc1Oc1ncc(Cl)cn1` was tested, and the GI50 (DMS-114) was 0.0927 µM (active), the GI50 (DMS-273) was 0.0501 µM (active) and the GI50 (HOP-18) was 23.4 µM (inactive). For the same molecule, the GI50 (KM-20L2) was 0.0906 µM (active), the GI50 (LXFL 529) was 0.0773 µM (active) and the GI50 (M19-MEL) was 0.316 µM (active). For the same molecule, the GI50 (SNB-78) was 0.0964 µM (active) and the GI50 (XF498) was 0.0671 µM (active).
